Source: patent US11713338B2, “Cyclic peptides multimers targeting α-4-β-7 integrin” (priority 2016, dated 2023)

target: T1, integrin α4β7 on α4β7+ memory T helper cells (Homo sapiens, UniProt P13612+P26010); test: MAdCAM-1 competition / receptor occupancy assay in human whole blood, α4β7-positive Th memory cells; assay type: cell-based; details: human whole blood, FIG. 7; read-out: EC50, competition with saturating amount of MAdCAM
T1 construct: endogenous in cells
T1 sequence (P13612 34-1032): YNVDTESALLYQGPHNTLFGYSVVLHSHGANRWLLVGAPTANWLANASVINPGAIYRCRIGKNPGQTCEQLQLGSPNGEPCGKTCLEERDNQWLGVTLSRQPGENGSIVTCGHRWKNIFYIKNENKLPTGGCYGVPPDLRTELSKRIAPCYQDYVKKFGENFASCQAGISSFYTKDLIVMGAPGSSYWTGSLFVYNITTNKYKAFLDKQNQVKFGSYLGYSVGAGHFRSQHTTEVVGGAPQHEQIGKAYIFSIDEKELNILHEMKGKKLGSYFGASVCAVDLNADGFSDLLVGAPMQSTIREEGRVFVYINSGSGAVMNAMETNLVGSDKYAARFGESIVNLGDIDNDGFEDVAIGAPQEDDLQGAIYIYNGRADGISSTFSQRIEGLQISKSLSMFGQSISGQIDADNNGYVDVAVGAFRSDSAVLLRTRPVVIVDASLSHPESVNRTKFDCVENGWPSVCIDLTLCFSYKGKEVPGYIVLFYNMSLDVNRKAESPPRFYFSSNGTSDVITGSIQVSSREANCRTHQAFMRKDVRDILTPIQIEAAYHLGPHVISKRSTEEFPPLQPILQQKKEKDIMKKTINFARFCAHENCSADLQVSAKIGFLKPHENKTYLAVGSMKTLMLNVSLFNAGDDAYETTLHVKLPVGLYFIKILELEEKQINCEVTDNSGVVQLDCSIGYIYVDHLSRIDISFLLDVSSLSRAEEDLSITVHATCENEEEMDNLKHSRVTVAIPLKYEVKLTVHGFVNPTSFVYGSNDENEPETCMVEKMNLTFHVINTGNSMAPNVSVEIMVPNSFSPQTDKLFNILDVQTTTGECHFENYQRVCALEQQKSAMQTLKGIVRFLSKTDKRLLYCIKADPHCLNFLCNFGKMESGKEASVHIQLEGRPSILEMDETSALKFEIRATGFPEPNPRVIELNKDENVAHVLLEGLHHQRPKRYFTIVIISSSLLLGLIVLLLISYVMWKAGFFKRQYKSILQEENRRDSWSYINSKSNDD
T1 sequence (P26010 20-798): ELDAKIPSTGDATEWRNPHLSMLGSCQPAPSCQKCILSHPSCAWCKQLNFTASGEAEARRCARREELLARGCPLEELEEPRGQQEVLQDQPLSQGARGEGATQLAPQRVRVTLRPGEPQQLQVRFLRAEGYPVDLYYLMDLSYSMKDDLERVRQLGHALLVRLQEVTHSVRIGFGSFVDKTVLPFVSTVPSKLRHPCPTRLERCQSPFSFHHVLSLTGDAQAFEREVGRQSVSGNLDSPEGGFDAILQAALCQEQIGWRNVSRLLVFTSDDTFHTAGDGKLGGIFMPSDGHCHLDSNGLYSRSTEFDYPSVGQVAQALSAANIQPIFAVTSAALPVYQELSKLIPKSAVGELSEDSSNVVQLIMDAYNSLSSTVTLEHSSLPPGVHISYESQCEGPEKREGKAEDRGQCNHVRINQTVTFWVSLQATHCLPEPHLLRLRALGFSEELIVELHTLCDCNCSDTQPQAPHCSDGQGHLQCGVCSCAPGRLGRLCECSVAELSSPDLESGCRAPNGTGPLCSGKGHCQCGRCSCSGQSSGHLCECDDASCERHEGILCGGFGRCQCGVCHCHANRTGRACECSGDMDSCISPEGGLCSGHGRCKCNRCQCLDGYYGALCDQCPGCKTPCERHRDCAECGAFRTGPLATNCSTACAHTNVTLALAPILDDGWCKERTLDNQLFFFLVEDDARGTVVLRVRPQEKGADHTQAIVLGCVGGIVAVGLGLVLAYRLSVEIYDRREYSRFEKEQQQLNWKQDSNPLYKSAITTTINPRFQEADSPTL
Method in brief: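 Human heparinised whole blood; saturating biotinylated rhMAdCAM-1-Fc or rhVCAM-1-Fc bound 1 h at RT, stained in buffer with 4 mM MnCl2, detected by streptavidin-APC flow cytometry on gated CD45+CD3+CD4+CD45RO+CD49d+ β7+ or β7-lo cells. Occupancy = 100−((% ligand-positive cells with compound/% ligand-positive cells DMSO)*100).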

Work on CC(C)C[C@@H]1NC(=O)c2ccc(-c3ccc(N4CCN(C(=O)c5ccccc5-c5ccccc5C(=O)N5CCN(c6ccc(-c7ccc8cc7CNC(=O)[C@@H]7CCCN7[C@H](C(=O)NC(C)(C)C)[C@H](C)NC(=O)[C@H]([C@@H](C)O)NC(=O)[C@H](CC(=O)O)NC(=O)[C@H](CC(C)C)NC8=O)cc6)CC5)CC4)cc3)c(c2)CNC(=O)[C@@H]2CCCN2[C@H](C(=O)NC(C)(C)C)[C@H](C)NC(=O)[C@H]([C@@H](C)O)NC(=O)[C@H](CC(=O)O)NC1=O [Compound 517] yielded an EC50 of 38 nM.

same assay, conditions: human whole blood, inhibition of MAdCAM-1 binding to α4β7-positive Th memory cells, FACS; read-out: MADCAM FACS α4β7 Th mem

CC(C)C[C@@H]1NC(=O)c2ccc(-c3ccc(N4CCN(Cc5ccc(CN6CCN(c7ccc(-c8ccc9cc8CNC(=O)[C@@H]8CCCN8[C@H](C(=O)NC(C)(C)C)[C@H](C)NC(=O)[C@H]([C@@H](C)O)NC(=O)[C@H](CC(=O)O)NC(=O)[C@H](CC(C)C)NC9=O)cc7)CC6)cc5)CC4)cc3)c(c2)CNC(=O)[C@@H]2CCCN2[C@H](C(=O)NC(C)(C)C)[C@H](C)NC(=O)[C@H]([C@@H](C)O)NC(=O)[C@H](CC(=O)O)NC1=O [Compound 500] and CC(C)C[C@@H]1NC(=O)c2ccc(-c3ccc(N4CCN(Cc5cccc(CN6CCN(c7ccc(-c8ccc9cc8CNC(=O)[C@@H]8CCCN8[C@H](C(=O)NC(C)(C)C)[C@H](C)NC(=O)[C@H]([C@@H](C)O)NC(=O)[C@H](CC(=O)O)NC(=O)[C@H](CC(C)C)NC9=O)cc7)CC6)c5)CC4)cc3)c(c2)CNC(=O)[C@@H]2CCCN2[C@H](C(=O)NC(C)(C)C)[C@H](C)NC(=O)[C@H]([C@@H](C)O)NC(=O)[C@H](CC(=O)O)NC1=O [Compound 499] are within 1.5-fold of each other in IC50: 55 nM for the first, 41 nM for the second.

CC(C)C[C@@H]1NC(=O)C[C@H](CCCCN)N(C)C(=O)[C@H](CCCCNC(=O)CCCCCC(=O)NCCCC[C@@H]2NC(=O)[C@@H]3CCCN3[C@H](C(=O)NC(C)(C)C)[C@H](C)NC(=O)[C@H]([C@@H](C)O)NC(=O)[C@H](CC(=O)O)NC(=O)[C@H](CC(C)C)NC(=O)C[C@H](CCCCN)N(C)C2=O)NC(=O)[C@@H]2CCCN2[C@H](C(=O)NC(C)(C)C)[C@H](C)NC(=O)[C@H]([C@@H](C)O)NC(=O)[C@H](CC(=O)O)NC1=O [Compound 532] and CC(C)C[C@@H]1NC(=O)C[C@H](CCCCN)N(C)C(=O)[C@H](CCCCNC(=O)CCOCCOCCOCCOCCOCCOCCOCCC(=O)NCCCC[C@@H]2NC(=O)[C@@H]3CCCN3[C@H](C(=O)NC(C)(C)C)[C@H](C)NC(=O)[C@H]([C@@H](C)O)NC(=O)[C@H](CC(=O)O)NC(=O)[C@H](CC(C)C)NC(=O)C[C@H](CCCCN)N(C)C2=O)NC(=O)[C@@H]2CCCN2[C@H](C(=O)NC(C)(C)C)[C@H](C)NC(=O)[C@H]([C@@H](C)O)NC(=O)[C@H](CC(=O)O)NC1=O [Compound 536] are within 1.5-fold of each other in IC50: 57 nM for the first, 75 nM for the second.

Compared with CC(C)C[C@@H]1NC(=O)c2ccc(-c3ccc(N4CCN(C(=O)C5(C(=O)N6CCN(c7ccc(-c8ccc9cc8CNC(=O)[C@@H]8CCCN8[C@H](C(=O)NC(C)(C)C)[C@H](C)NC(=O)[C@H]([C@@H](C)O)NC(=O)[C@H](CC(=O)O)NC(=O)[C@H](CC(C)C)NC9=O)cc7)CC6)Cc6ccccc6C5)CC4)cc3)c(c2)CNC(=O)[C@@H]2CCCN2[C@H](C(=O)NC(C)(C)C)[C@H](C)NC(=O)[C@H]([C@@H](C)O)NC(=O)[C@H](CC(=O)O)NC1=O [Compound 461], CC(C)C[C@@H]1NC(=O)c2ccc(-c3ccc(N4CCN(C(=O)c5ccccc5-c5ccccc5C(=O)N5CCN(c6ccc(-c7ccc8cc7CNC(=O)[C@@H]7CCCN7[C@H](C(=O)NC(C)(C)C)[C@H](C)NC(=O)[C@H]([C@@H](C)O)NC(=O)[C@H](CC(=O)O)NC(=O)[C@H](CC(C)C)NC8=O)cc6)CC5)CC4)cc3)c(c2)CNC(=O)[C@@H]2CCCN2[C@H](C(=O)NC(C)(C)C)[C@H](C)NC(=O)[C@H]([C@@H](C)O)NC(=O)[C@H](CC(=O)O)NC1=O [Compound 517] is 2.2-fold lower in IC50: 93 nM for the first, 43 nM for the second. The second is the more potent here.

CC(C)C[C@@H]1NC(=O)c2ccc(-c3ccc(N4CCN(CCC(=O)N5CCN(c6ccc(-c7ccc8cc7CNC(=O)[C@@H]7CCCN7[C@H](C(=O)NC(C)(C)C)[C@H](C)NC(=O)[C@H]([C@@H](C)O)NC(=O)[C@H](CC(=O)O)NC(=O)[C@H](CC(C)C)NC8=O)cc6)CC5)CC4)cc3)c(c2)CNC(=O)[C@@H]2CCCN2[C@H](C(=O)NC(C)(C)C)[C@H](C)NC(=O)[C@H]([C@@H](C)O)NC(=O)[C@H](CC(=O)O)NC1=O [Compound 482] showed an IC50 of 30 nM.
